From patent US7425551B2, “Malonamide derivatives” (Hoffmann-La Roche Inc., priority 2006, dated 2008)
pIC50: −log10 of the molar value.

Target: T1, γ-secretase (Homo sapiens, UniProt P49768)
T1 construct: uses a HEK293 membrane fraction as a source of γ-secretase; endogenous in cells; host or cells: HEK293 (microsomal membrane fraction, solubilised in 0.25% CHAPSO)
Test: in vitro assay of γ-secretase activity (HEK293 membrane fraction, recombinant APP substrate, Abeta ELISA)
Format: biochemical
Details: γ-secretase inhibition; HEK293 membrane fraction solubilized in 0.25% CHAPSO, recombinant human APP C-terminal 100 amino acids substrate, Abeta detected by ELISA
Description: Description of 1γ-Secretase Assay The activity of test compounds can be evaluated in assays which measure the proteolytic cleavage of suitable substrates by γ-secretase activity. These can be cellular assays where e.g., a substrate of the γ-secretase is fused in its cytoplasmic domain to a transcription factor. Cells are transfected with this fusion gene and a reporter gene, e.g., firefly luciferase, which expression is enhanced by the transcription factor. Cleavage of the fused substrate by γ-secretase will lead to expression of the reporter gene which can be monitored in appropriate assays. The γ-secretase activity can also be determined in cell-free in vitro assays where e.g., a cell lysate containing the γ-secretase complex is incubated with a suitable APP-derived substrate which is cleaved to the Abeta peptides. The amount of produced peptides can be determined with specific ELISA assays. Cell lines of neuronal origin secrete Abeta peptides which can be measured with the specific ELISA assay. Treatment with compounds which inhibit γ-secretase leads to a reduction of secreted Abeta thus providing a measure of inhibition. The in vitro assay of γ-secretase activity uses a HEK293 membrane fraction as a source of γ-secretase and a recombinant APP substrate. Latter consist of the C-terminal 100 amino acids of human APP fused to a 6× Histidin tail for purification which is expressed in E. coli in a regulatable expression vector, e.g. pEt15. This recombinant protein corresponds to the truncated APP fragment which results after […] of the extracellular domain and which constitutes the γ-secretase substrate. The assay principle is described in Li Y M et al, PNAS 97(11), 6138-6143 (2000). Hek293 cells are mechanically disrupted and the microsomal fraction is isolated by differential centrifugation. The membranes are solubilized in detergent (0.25% CHAPSO) and incubated with the APP substrate. The Abeta peptides which are produced by γ-secretase cleavage of the substrate are detected by specific ELISA assays as described (Brockhaus M et al, Neuroreport 9(7), 1481-1486 (1998).

With `CCOC(C(=O)NCC(F)(F)C(F)(F)F)C(=O)N[C@@H]1C(=O)N(CCO)c2ccccc2-c2ccccc21` (single isomer, unassigned; epimer a) [Example 18, (S or R)-2-Ethoxy-N—[(S)-5-(2-hydroxy-ethyl)-6-oxo-6,7-dihydro-5H-dibenzo[b,d]azepin-7-yl]-N′-(2,2,3,3,3-pentafluoro-propyl)-malonamide, epimer A] as the molecule, how does the pIC50 read?
The pIC50 was 8.15.

With `CC(O)(C(=O)NCC(F)(F)C(F)(F)F)C(=O)N[C@@H]1C(=O)N(CCO)c2ccccc2-c2ccccc21` (single isomer, unassigned; epimer a) [Example 20] as the molecule, how does the pIC50 read?
Its pIC50 is 8.52.

With `COCCN1C(=O)[C@@H](NC(=O)C(C)(O)C(=O)NCC(F)(F)C(F)(F)F)c2ccccc2-c2ccccc21` (single isomer, unassigned; epimer a) [Example 45] as the molecule, how does the pIC50 read?
The pIC50 was 8.05.

`CC(O)(C(=O)NCCC(F)(F)F)C(=O)N[C@@H]1C(=O)N(CCO)c2ccccc2-c2ccccc21` (single isomer, unassigned; epimer a) [Example 65, (R or S)-2-Hydroxy-N—[(S)-5-(2-hydroxy-ethyl)-6-oxo-6,7-dihydro-5H-dibenzo[b,d]azepin-7-yl]-2-methyl-N′-(3,3,3-trifluoro-propyl)-malonamide, epimer A] was tested. Which pIC50 did it give?
Its pIC50 is 7.41.

With `CCOC(C(=O)NCC(F)(F)C(F)(F)F)C(=O)N[C@@H]1C(=O)N(CCO)c2ccccc2-c2ccccc21` (single isomer, unassigned; epimer b) [Example 19, [R or S]2-Ethoxy-N—[(S)-5-(2-hydroxy-ethyl)-6-oxo-6,7-dihydro-5H-dibenzo[b,d]azepin-7-yl]-N′-(2,2,3,3,3-pentafluoro-propyl)-malonamide, epimer B] as the molecule, how does the pIC50 read?
The pIC50 was 8.40.

With `CC(O)(C(=O)NCC(F)(F)C(F)(F)F)C(=O)N[C@@H]1C(=O)N(CCO)c2ccccc2-c2ccccc21` (single isomer, unassigned; epimer b) [Example 21] as the molecule, how does the pIC50 read?
The pIC50 was 9.00.

How did the pIC50 turn out when `COCCN1C(=O)[C@@H](NC(=O)C(C)(O)C(=O)NCC(F)(F)C(F)(F)F)c2ccccc2-c2ccccc21` (single isomer, unassigned; epimer b) [Example 46] was run?
Its pIC50 is 8.70.

How did the pIC50 turn out when `CC(O)(C(=O)NCCC(F)(F)C(F)(F)F)C(=O)N[C@@H]1C(=O)N(CCO)c2ccccc2-c2ccccc21` (single isomer, unassigned; epimer b) [Example 62, (S or R)-2-Hydroxy-N—[(S)-5-(2-hydroxy-ethyl)-6-oxo-6,7-dihydro-5H-dibenzo[b,d]azepin-7-yl]-2-methyl-N′-(3,3,4,4,4-pentafluoro-butyl)-malonamide, epimer B] was run?
The pIC50 was 9.00.

With `CC(O)(C(=O)NCCC(F)(F)F)C(=O)N[C@@H]1C(=O)N(CCO)c2ccccc2-c2ccccc21` (single isomer, unassigned; epimer b) [Example 66, (S or R)-2-Hydroxy-N—[(S)-5-(2-hydroxy-ethyl)-6-oxo-6,7-dihydro-5H-dibenzo[b,d]azepin-7-yl]-2-methyl-N′-(3,3,3-trifluoro-propyl)-malonamide, epimer B] as the molecule, how does the pIC50 read?
The pIC50 was 9.00.

How did the pIC50 turn out when `COC(=O)CN1C(=O)[C@@H](NC(=O)C(C)C(=O)NCC(F)(F)C(F)(F)F)c2ccccc2-c2ccccc21` (stereo partly drawn) [Example 1, {(S)-6-Oxo-7-[2-(2,2,3,3,3-pentafluoro-propylcarbamoyl)-propionylamino]-6,7-dihydro-dibenzo[b,d]azepin-5-yl}-acetic acid methyl ester] was run?
Its pIC50 is 8.00.

With `CC(C(=O)NCC(F)(F)C(F)(F)F)C(=O)N[C@@H]1C(=O)N(CCOCc2ccccc2)c2ccccc2-c2ccccc21` (stereo partly drawn) [Example 2, N—[(S)-5-(2-Benzyloxy-ethyl)-6-oxo-6,7-dihydro-5H-dibenzo[b,d]azepin-7-yl]-2-methyl-N′-(2,2,3,3,3-pentafluoro-propyl)-malonamide] as the molecule, how does the pIC50 read?
The pIC50 was 8.22.

With `CC(C(=O)NCC(F)(F)C(F)(F)F)C(=O)N[C@@H]1C(=O)N(CCO)c2ccccc2-c2ccccc21` (stereo partly drawn) [Example 3, N—[(S)-5-(2-Hydroxy-ethyl)-6-oxo-6,7-dihydro-5H-dibenzo[b,d]azepin-7-yl]-2-methyl-N ′-(2,2,3,3,3-pentafluoro-propyl)-malonamide] as the molecule, how does the pIC50 read?
Its pIC50 is 9.00.

How did the pIC50 turn out when `CC(C)(C(=O)NCC(F)(F)C(F)(F)F)C(=O)N[C@@H]1C(=O)N(CCOCc2ccccc2)c2ccccc2-c2ccccc21` [Example 4, N—[(S)-5-(2-Benzyloxy-ethyl)-6-oxo-6,7-dihydro-5H-dibenzo[b,d]azepin-7-yl]-2,2-dimethyl-N′-(2,2,3,3,3-pentafluoro-propyl)-malonamide] was run?
Its pIC50 is 8.05.

`C[C@H](OC(=O)NCC(F)(F)C(F)(F)F)C(=O)N[C@@H]1C(=O)N(CCOCc2ccccc2)c2ccccc2-c2ccccc21` [Example 5, (2,2,3,3,3-Pentafluoro-propyl)-carbamic acid (S)-1-[(S)-5-(2-benzyloxy-ethyl)-6-oxo-6,7-dihydro-5H-dibenzo[b,d]azepin-7-ylcarbamoyl]-ethyl ester] was tested. Which pIC50 did it give?
Its pIC50 is 7.96.

`CC(C)(C(=O)NCC(F)(F)C(F)(F)F)C(=O)N[C@@H]1C(=O)N(CCO)c2ccccc2-c2ccccc21` [Example 6, N—[(S)-5-(2-Hydroxy-ethyl)-6-oxo-6,7-dihydro-5H-dibenzo[b,d]azepin-7-yl]-2,2-dimethyl-N′-(2,2,3,3,3-pentafluoro-propyl)-malonamide] was tested. Which pIC50 did it give?
Its pIC50 is 8.70.

`O=C(CC(=O)N[C@@H]1C(=O)N(CCOCc2ccccc2)c2ccccc2-c2ccccc21)NCC(F)(F)C(F)(F)F` [Example 7, N—[(S)-5-(2-Benzyloxy-ethyl)-6-oxo-6,7-dihydro-5H-dibenzo[b,d]azepin-7-yl]-N′-(2,2,3,3,3-pentafluoro-propyl)-malonamide] was tested. Which pIC50 did it give?
The pIC50 was 7.66.

`C[C@H](OC(=O)NCC(F)(F)C(F)(F)F)C(=O)N[C@@H]1C(=O)N(CCO)c2ccccc2-c2ccccc21` [Example 8, (2,2,3,3,3-Pentafluoro-propyl)-carbamic acid (S)-1-[(S)-5-(2-hydroxy-ethyl)-6-oxo-6,7-dihydro-5H-dibenzo[b,d]azepin-7-ylcarbamoyl]-ethyl ester] was tested. Which pIC50 did it give?
The pIC50 was 8.22.

With `O=C(CC(=O)N[C@@H]1C(=O)N(CCO)c2ccccc2-c2ccccc21)NCC(F)(F)C(F)(F)F` [Example 9, N—[(S)-5-(2-Hydroxy-ethyl)-6-oxo-6,7-dihydro-5H-dibenzo[b,d]azepin-7-yl]-N′-(2,2,3,3,3-pentafluoro-propyl)-malonamide] as the molecule, how does the pIC50 read?
The pIC50 was 7.72.

`COC(C(=O)NCC(F)(F)C(F)(F)F)C(=O)N[C@@H]1C(=O)N(CCOCc2ccccc2)c2ccccc2-c2ccccc21` (stereo partly drawn) [Example 10, N—[(S)-5-(2-Benzyloxy-ethyl)-6-oxo-6,7-dihydro-5H-dibenzo[b,d]azepin-7-yl]-2-methoxy-N′-(2,2,3,3,3-pentafluoro-propyl)-malonamide] was tested. Which pIC50 did it give?
Its pIC50 is 7.31.

With `COC(C(=O)NCC(F)(F)C(F)(F)F)C(=O)N[C@@H]1C(=O)N(CCO)c2ccccc2-c2ccccc21` (stereo partly drawn) [Example 11, N—[(S)-5-(2-Hydroxy-ethyl)-6-oxo-6,7-dihydro-5H-dibenzo[b,d]azepin-7-yl]-2-methoxy-N′-(2,2,3,3,3-pentafluoro-propyl)-malonamide] as the molecule, how does the pIC50 read?
Its pIC50 is 8.15.

`CC(O)(C(=O)NCC(F)(F)C(F)(F)F)C(=O)N[C@@H]1C(=O)N(CCOCc2ccccc2)c2ccccc2-c2ccccc21` (stereo partly drawn) [Example 12, N—[(S)-5-(2-Benzyloxy-ethyl)-6-oxo-6,7-dihydro-5H-dibenzo[b,d]azepin-7-yl]-2-hydroxy-2-methyl-N′-(2,2,3,3,3-pentafluoro-propyl)-malonamide] was tested. Which pIC50 did it give?
The pIC50 was 8.00.

With `CC(F)(C(=O)NCC(F)(F)C(F)(F)F)C(=O)N[C@@H]1C(=O)N(CCOCc2ccccc2)c2ccccc2-c2ccccc21` (stereo partly drawn) [Example 13, N—[(S)-5-(2-Benzyloxy-ethyl)-6-oxo-6,7-dihydro-5H-dibenzo[b,d]azepin-7-yl]-2-fluoro-2-methyl-N′-(2,2,3,3,3-pentafluoro-propyl)-malonamide] as the molecule, how does the pIC50 read?
Its pIC50 is 8.00.

With `CCOC(C(=O)NCC(F)(F)C(F)(F)F)C(=O)N[C@@H]1C(=O)N(CCOCc2ccccc2)c2ccccc2-c2ccccc21` (stereo partly shown) [Example 14] as the molecule, how does the pIC50 read?
The pIC50 was 8.10.

With `CC(O)(C(=O)NCC(F)(F)C(F)(F)F)C(=O)N[C@@H]1C(=O)N(CCO)c2ccccc2-c2ccccc21` (stereo partly drawn) [Example 15, 2-Hydroxy-N—[(S)-5-(2-hydroxy-ethyl)-6-oxo-6,7-dihydro-5H-dibenzo[b,d]azepin-7-yl]-2-methyl-N′-(2,2,3,3,3-pentafluoro-propyl)-malonamide] as the molecule, how does the pIC50 read?
Its pIC50 is 9.00.

`CC(F)(C(=O)NCC(F)(F)C(F)(F)F)C(=O)N[C@@H]1C(=O)N(CCO)c2ccccc2-c2ccccc21` (stereo partly drawn) [Example 16, 2-Fluoro-N—[(S)-5-(2-hydroxy-ethyl)-6-oxo-6,7-dihydro-5H-dibenzo[b,d]azepin-7-yl]-2-methyl-N′-(2,2,3,3,3-pentafluoro-propyl)-malonamide] was tested. Which pIC50 did it give?
The pIC50 was 8.52.
